Results reported in US20260256792A1, “TREATMENT OF CHRONIC SPONTANEOUS URTICARIA BY ADMINISTERING (R)-2-[3-[4-AMINO-3-(2-FLUORO-4-PHENOXY-PHENYL)PYRAZOLO[3,4-D]PYRIMIDIN-1-YL]PIPERIDINE-1-CARBONYL]-4-METHYL-4-[4-(OXETAN-3-YL)PIPERAZIN-1-YL]PENT-2-ENENITRILE” (priority 2023, published 2026).

System: moderate-to-severe chronic spontaneous urticaria (CSU)
Assay: Phase 2 CSU study: hives severity score over 7 days (HSS7)
Format: in vivo, human
Design: key to HSS7 Change from baseline, Median / HSS7, Median / HSS7, Max / HSS7 Change from baseline, Q1 / HSS7 Change from baseline, Q3 / HSS7 Change from baseline, Max: 7-day sum of daily hive scores, each 0 = none to 3 = >50 hives
Source text: The study comprises a 12 week, randomized, double-blind, placebo-controlled, multi-center, dose-ranging efficacy and safety phase, followed by a 40 week open label extension (OLE) phase (see FIG. 1).
The study consists of three phases and an optional OLE phase.
The UAS is a validated PRO measure. The daily UAS is the sum of the daily Hive Severity Score (HSS, ranging from 0=None to 3=more than 50 hives) and the daily Itch Severity Score (ISS, ranging from 0=None to 3=intense), the 2 key urticaria signs and symptoms which are wheals and itch. The daily UAS scores range from 0 to 6 point/day. Daily UAS scores are summed over 7-day period to create the UAS7, ranging from 0 to 42, and are composed of the HSS7 and ISS7 components. […] Patients were to complete the UAS using the e-diary. The e-diary was to be used once daily on the same time of each day recording of participant's answers to the urticaria activity score over 7 days (UAS7) questionnaire. For participants who entered the OLE phase, their answers to the UAS7 questionnaire were also to be collected from Week 20 to Week24 and from Week 48 to Week 52.
The following secondary endpoints were to be analyzed using the same approach as for the primary endpoint: • Change from baseline in UAS7 at Week 4 • Change from baseline in UAS7 at Week 12 (for US and US reference countries) • Change from baseline in ISS7 at Week 12 (except US and US reference countries) • Change from baseline in HSS7 at Week 12

[1] = Week 4, 400 mg BID, Omalizumab-Naïve Population
[2] = Week 4, 400 mg BID, Patients with Prior Omalizumab Use
[3] = Week 4, 400 mg QPM, Omalizumab-Naïve Population
[4] = Week 4, 400 mg QPM, Patients with Prior Omalizumab Use
[5] = Week 4, 400 mg TID, Omalizumab-Naïve Population
[6] = Week 4, 400 mg TID, Patients with Prior Omalizumab Use
[7] = Week 5, 400 mg BID, Omalizumab-Naïve Population
[8] = Week 5, 400 mg BID, Patients with Prior Omalizumab Use
[9] = Week 5, 400 mg QPM, Omalizumab-Naïve Population
[10] = Week 5, 400 mg QPM, Patients with Prior Omalizumab Use
[11] = Week 5, 400 mg TID, Omalizumab-Naïve Population
[12] = Week 5, 400 mg TID, Patients with Prior Omalizumab Use
[13] = Week 6, 400 mg BID, Omalizumab-Naïve Population
[14] = Week 6, 400 mg BID, Patients with Prior Omalizumab Use
[15] = Week 6, 400 mg QPM, Omalizumab-Naïve Population
[16] = Week 6, 400 mg QPM, Patients with Prior Omalizumab Use
[17] = Week 6, 400 mg TID, Omalizumab-Naïve Population
[18] = Week 6, 400 mg TID, Patients with Prior Omalizumab Use

CC(C)(C=C(C#N)C(=O)N1CCC[C@@H](n2nc(-c3ccc(Oc4ccccc4)cc3F)c3c(N)ncnc32)C1)N1CCN(C2COC2)CC1 [rilzabrutinib, (R)-2-[3-[4-amino-3-(2-fluoro-4-phenoxy-phenyl)pyrazolo[3,4-d]pyrimidin-1-yl]piperidine-1-carbonyl]-4-methyl-4-[4-(oxetan-3-yl)piperazin-1-yl]pent-2-enenitrile]
HSS7, Mean (SD) [1]: 7.60 (6.00)
HSS7, Median [1]: 7.00
HSS7 Change from baseline, Mean (SD) [1]: −6.54 (5.34)
HSS7 Change from baseline, Median [1]: −6.00
HSS7 Percent change from baseline, Mean (SD) [1]: −47.44 (37.17) %
HSS7 Percent change from baseline, Median [1]: −42.86%
HSS7, Mean (SD) [2]: 6.80 (8.04)
HSS7, Median [2]: 2.00
HSS7 Change from baseline, Mean (SD) [2]: −10.00 (8.34)
HSS7 Change from baseline, Median [2]: −12.00
HSS7 Percent change from baseline, Mean (SD) [2]: −60.22 (47.52) %
HSS7 Percent change from baseline, Median [2]: −88.24%
HSS7 Change from baseline, Mean (SD) [3]: −4.20 (4.74)
HSS7 Change from baseline, Median [3]: −3.00
HSS7 Percent change from baseline, Mean (SD) [3]: −26.30 (29.41) %
HSS7 Percent change from baseline, Median [3]: −16.67%
HSS7, Mean (SD) [4]: 10.00 (NC)
HSS7 Change from baseline, Mean (SD) [4]: −10.00 (NC)
HSS7 Change from baseline, Median [4]: −10.00
HSS7 Percent change from baseline, Mean (SD) [4]: −50.00 (NC) %
HSS7 Percent change from baseline, Median [4]: −50.00%
HSS7, Mean (SD) [5]: 6.85 (4.96)
HSS7, Median [5]: 6.50
HSS7 Change from baseline, Mean (SD) [5]: −7.21 (5.24)
HSS7 Change from baseline, Median [5]: −6.58
HSS7 Percent change from baseline, Mean (SD) [5]: −50.43 (33.03) %
HSS7 Percent change from baseline, Median [5]: −50.69%
HSS7, Mean (SD) [6]: 3.92 (4.26)
HSS7, Median [6]: 3.17
HSS7 Change from baseline, Mean (SD) [6]: −12.11 (6.81)
HSS7 Change from baseline, Median [6]: −12.42
HSS7 Percent change from baseline, Mean (SD) [6]: −73.06 (22.97) %
HSS7 Percent change from baseline, Median [6]: −76.19%
HSS7, Mean (SD) [7]: 8.34 (6.75)
HSS7, Median [7]: 7.00
HSS7 Change from baseline, Mean (SD) [7]: −6.01 (5.82)
HSS7 Change from baseline, Median [7]: −7.00
HSS7 Percent change from baseline, Mean (SD) [7]: −43.27 (41.28) %
HSS7 Percent change from baseline, Median [7]: −42.86%
HSS7, Mean (SD) [8]: 4.25 (8.50)
HSS7, Median [8]: 0.00
HSS7 Change from baseline, Median [8]: −14.50
HSS7 Percent change from baseline, Mean (SD) [8]: −75.00 (50.00) %
HSS7 Percent change from baseline, Median [8]: −100.00%
HSS7, Mean (SD) [9]: 9.63 (5.13)
HSS7, Median [9]: 8.20
HSS7 Change from baseline, Mean (SD) [9]: −5.12 (5.22)
HSS7 Change from baseline, Median [9]: −3.50
HSS7 Percent change from baseline, Mean (SD) [9]: −32.44 (31.06) %
HSS7 Percent change from baseline, Median [9]: −26.11%
HSS7, Mean (SD) [10]: 8.00 (NC)
HSS7, Median [10]: 8.00
HSS7 Change from baseline, Mean (SD) [10]: −12.00 (NC)
HSS7 Change from baseline, Median [10]: −12.00
HSS7 Percent change from baseline, Mean (SD) [10]: −60.00 (NC) %
HSS7 Percent change from baseline, Median [10]: −60.00%
HSS7, Mean (SD) [11]: 6.49 (5.14)
HSS7, Median [11]: 6.00
HSS7 Change from baseline, Mean (SD) [11]: −7.57 (5.71)
HSS7 Change from baseline, Median [11]: −7.00
HSS7 Percent change from baseline, Mean (SD) [11]: −52.28 (34.93) %
HSS7 Percent change from baseline, Median [11]: −50.00%
HSS7, Mean (SD) [12]: 3.42 (4.45)
HSS7, Median [12]: 2.50
HSS7 Change from baseline, Mean (SD) [12]: −12.61 (7.49)
HSS7 Change from baseline, Median [12]: −12.00
HSS7 Percent change from baseline, Mean (SD) [12]: −75.12 (24.22) %
HSS7 Percent change from baseline, Median [12]: −75.37%
HSS7, Mean (SD) [13]: 8.17 (6.62)
HSS7, Median [13]: 7.00
HSS7 Change from baseline, Mean (SD) [13]: −6.17 (6.01)
HSS7 Change from baseline, Median [13]: −6.42
HSS7 Percent change from baseline, Mean (SD) [13]: −43.56 (44.25) %
HSS7 Percent change from baseline, Median [13]: −47.73%
HSS7, Mean (SD) [14]: 5.97 (7.25)
HSS7, Median [14]: 3.50
HSS7 Change from baseline, Mean (SD) [14]: −8.83 (9.41)
HSS7 Change from baseline, Median [14]: −12.00
HSS7 Percent change from baseline, Mean (SD) [14]: −50.00 (62.36) %
HSS7 Percent change from baseline, Median [14]: −83.33%
HSS7, Mean (SD) [15]: 9.94 (5.76)
HSS7, Median [15]: 8.28
HSS7 Change from baseline, Mean (SD) [15]: −5.20 (5.64)
HSS7 Change from baseline, Median [15]: −4.50
HSS7 Percent change from baseline, Mean (SD) [15]: −33.60 (35.00) %
HSS7 Percent change from baseline, Median [15]: −37.09%
HSS7, Mean (SD) [16]: 8.00 (NC)
HSS7, Median [16]: 8.00
HSS7 Change from baseline, Mean (SD) [16]: −12.00 (NC)
HSS7 Change from baseline, Median [16]: −12.00
HSS7 Percent change from baseline, Mean (SD) [16]: −60.00 (NC) %
HSS7 Percent change from baseline, Median [16]: −60.00%
HSS7, Mean (SD) [17]: 6.78 (5.55)
HSS7, Median [17]: 6.00
HSS7 Change from baseline, Mean (SD) [17]: −7.22 (6.24)
HSS7 Change from baseline, Median [17]: −7.00
HSS7 Percent change from baseline, Mean (SD) [17]: −49.49 (37.97) %
HSS7 Percent change from baseline, Median [17]: −46.15%
HSS7, Mean (SD) [18]: 2.83 (4.62)
HSS7, Median [18]: 1.00
HSS7 Change from baseline, Mean (SD) [18]: −13.19 (6.97)
HSS7 Change from baseline, Median [18]: −13.00
HSS7 Percent change from baseline, Mean (SD) [18]: −81.39 (23.52) %
HSS7 Percent change from baseline, Median [18]: −91.50%
